Measurements: US20120046258A1, “NOVEL CRYSTALLINE PHARMACEUTICAL PRODUCT” (GLAXO GROUP LIMITED, priority 2005, published 2012)

Assay: Anderson Cascade impaction analysis of dry powder blend in blister strip
Type: physicochemical
Details: 0.8% w/w drug in milled lactose blend, 13 mg per blister
Protocol: A blend was prepared containing 0.8% w/w 6α,9α-difluoro-17α-[(2-furanylcarbonyl)oxy]-11β-hydroxy-16α-methyl-3-oxo-androsta-1,4-diene-17β-carbothioic acid S-fluoromethyl ester, prepared as particles according to the invention, and 99.2% w/w milled lactose (wherein the mean particle size is of the range 60-90 μm, and not greater than 15% of particles have a MMD of less than 15 μm).
The above composition was blended for 10 minutes at 600 rpm in a 2.5 litre bowl QMM Micromixer. A peelable blister strip containing 14 blisters, each filled with 13 mg of the powder formulation described above was prepared.
Anderson Cascade impaction analysis of this product was performed initially and after 1 month storage at 30° C. and 65% relative humidity as shown in Table 1 below.

C[C@]12C[C@H](O)[C@@]3(F)C(C[C@H](F)C4=CC(=O)C=C[C@@]43C)C1C[C@](C)(OC(=O)c1ccco1)[C@@H]2C(=O)SCF (some centres unmarked) [Micronised Drug, reference compound]
Respirable fraction (% of Total Emitted Dose) (1 month @ 30° C./65% Relative Humidity): 25.1 % of Total Emitted Dose | Respirable fraction (% of Total Emitted Dose) (Initial): 26.6 % of Total Emitted Dose
